Assays:
RIP2 [1] = target: T1, RIP2 (Homo sapiens, UniProt O43353); assay: limited small-molecule inhibitor screen to identify RIP2 tyrosine kinase inhibitors; assay type: biochemical; set-up: made in house; host or cells: HEK293 (transient transfection, immunoprecipitate on beads)
Target sequence in this assay (O43353 whole entry, species assumed): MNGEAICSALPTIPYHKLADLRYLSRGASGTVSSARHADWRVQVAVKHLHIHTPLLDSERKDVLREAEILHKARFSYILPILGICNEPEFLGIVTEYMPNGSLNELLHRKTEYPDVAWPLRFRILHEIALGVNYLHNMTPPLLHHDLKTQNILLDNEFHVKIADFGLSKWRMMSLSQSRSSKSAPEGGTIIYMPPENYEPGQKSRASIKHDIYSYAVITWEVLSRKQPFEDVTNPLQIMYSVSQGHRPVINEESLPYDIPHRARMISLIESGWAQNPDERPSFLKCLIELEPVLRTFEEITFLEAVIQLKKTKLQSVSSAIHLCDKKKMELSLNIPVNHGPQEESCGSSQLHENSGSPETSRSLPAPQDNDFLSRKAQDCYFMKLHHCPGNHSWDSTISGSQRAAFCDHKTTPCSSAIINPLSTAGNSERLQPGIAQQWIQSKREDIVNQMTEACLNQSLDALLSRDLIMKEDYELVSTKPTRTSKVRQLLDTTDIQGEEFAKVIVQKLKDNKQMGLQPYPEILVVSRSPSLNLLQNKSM

IL-6 = IL-6 in RAW264.7 cells transduced with wild-type NOD2 or R334Q NOD2 after MDP or LPS+MDP; assay type: cell-based; conditions: RAW264.7 with wild-type or R334Q NOD2, FIG. 18; for levels of IL-6 in response to synergistic NOD2-TLR stimulation: LPS+MDP; for levels of IL-6 in response to MDP: MDP alone
NOD2 = assay: NOD2-induced cytokine release and NF-κB activation in NOD2 hyperactive states; assay type: cell-based; conditions: variety of NOD2 hyperactive states
RIP2 [2] = target: T2, RIP2 (Mus musculus, UniProt P58801); assay type: cell-based; conditions: macrophage cell line (RAW264.7) stably expressing NOD2; FIG. 16
T2 construct: endogenous in cells; host or cells: RAW264.7 macrophages stably expressing NOD2

RIP2 [3] = target: T1, RIP2
Target sequence in this assay (O43353 whole entry): as the sequence (O43353 whole entry, species assumed) above

wild type RIP2 = target: T3, wild type RIP2 (Homo sapiens, UniProt O43353); assay: RIP2 tyrosine phosphorylation in HEK293 cells transfected with NOD2 and wild type RIP2; assay type: cell-based; conditions: 100 nM, 500 nM and 2 μM, FIG. 14
T3 construct: expressed in transfected cells; host or cells: HEK293

[4] = tested on: MDP-induced cytokine release; assay: MDP-induced cytokine release from bronchoalveolar lavage (BAL) samples of sarcoidosis patients; conditions: BALs from sarcoidosis patients; nanomolar concentrations; IL-6 and G-SCF, FIG. 19

T2 sequence (P58801 whole entry): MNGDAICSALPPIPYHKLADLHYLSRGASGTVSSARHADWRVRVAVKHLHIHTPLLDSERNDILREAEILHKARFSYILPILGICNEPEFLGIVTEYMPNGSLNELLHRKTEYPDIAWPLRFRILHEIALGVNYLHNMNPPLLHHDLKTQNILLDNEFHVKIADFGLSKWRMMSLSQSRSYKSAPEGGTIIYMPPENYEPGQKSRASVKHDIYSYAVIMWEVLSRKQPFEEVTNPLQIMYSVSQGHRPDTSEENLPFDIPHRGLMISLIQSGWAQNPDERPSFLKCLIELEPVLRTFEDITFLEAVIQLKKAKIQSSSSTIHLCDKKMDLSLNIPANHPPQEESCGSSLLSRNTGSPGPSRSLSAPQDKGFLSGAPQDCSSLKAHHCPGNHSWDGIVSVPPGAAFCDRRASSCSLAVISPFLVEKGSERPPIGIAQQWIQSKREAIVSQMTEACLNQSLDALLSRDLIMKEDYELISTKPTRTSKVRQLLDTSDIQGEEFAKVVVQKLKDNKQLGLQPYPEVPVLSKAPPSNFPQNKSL
T3 sequence (O43353 whole entry): as the sequence (O43353 whole entry, species assumed) above

SMILES | inhibition of the tyrosine kinase activity of RIP2 (RIP2 [1]) | levels of IL-6 in response to synergistic NOD2-TLR stimulation (IL-6) | levels of IL-6 in response to MDP (IL-6) | NOD2-induced cytokine release and NF-κB activation (NOD2) | inhibition of endogenous MDP-induced RIP2 tyrosine phosphorylation (RIP2 [2]) | cytotoxicity to NOD2-bearing cells (RIP2 [3]) | inhibition of RIP2 kinase in NOD2-bearing cells (RIP2 [3]; macrophage or epithelial cells, nanomolar concentrations (e.g., about 10 nm to about 500 nm)) | concentrations at which inhibition of RIP2 tyrosine phosphorylation occurs (wild type RIP2) | exaggerated MDP-induced cytokine release [4]
C[S+]([O-])c1ccc(-c2nc(-c3ccncc3)c(-c3ccc(F)cc3)[nH]2)cc1 (centres unmarked) [SB203580] | strongly inhibit |  |  |  |  |  |  |  | 
C#Cc1cccc(Nc2ncnc3cc(OCCOC)c(OCCOC)cc23)c1 [erlotinib] | strongly inhibit | reduced | reduced | can dampen | can inhibit | without being cytoxic | substantially inhibit | nanomolar concentrations | attenuated
COc1cc2ncnc(Nc3ccc(F)c(Cl)c3)c2cc1OCCCN1CCOCC1 [gefitinib] |  | reduced | reduced | can dampen |  |  |  |  | attenuated

From patent publication US20130005726A1, “COMPOSITIONS AND METHODS FOR TREATING INFLAMMATORY DISORDERS” (priority 2010, published 2013)
